The test system of data set [1] is Human immunodeficiency virus 1. As to conditions: read-out: ED50.
Data set [2] concerns MT2. Briefly: Lethal dose (LD5) concentration inhibiting growth of MT-2 cells by 5%. In kind it is toxicity, cell-based. As to conditions: human.
Data set [3] concerns Human immunodeficiency virus 1. Briefly: Concentration that inhibits Human Immunodeficiency Virus Type 1 (HIV-1)-induced death of MT-2 cells. In kind it is functional, MT2. As to conditions: read-out: ED50 (the source's name).
Data set [4] concerns Human immunodeficiency virus 1. Briefly: microbe, parasite or virus in culture. The settings on record: Human immunodeficiency virus 1, read-out: ED50.
Data set [5] addresses Human immunodeficiency virus type 1 integrase (Human immunodeficiency virus 1, UniProt Q7ZJM1).
Description: Inhibitory activity against Human Immunodeficiency Virus Type 1 integrase (HIV-1 IN) in the disintegration assay.
The subject of data set [6] is Human immunodeficiency virus 1. As to conditions: read-out: ED50. This is another data set of the same source.
Where [7] appears, read: Human immunodeficiency virus 1, MT2.

A value given as a limit tells only on which side of the number the result lay.

For `O=C(OC(C(=O)O)C(OC(=O)c1ccc(O)c(O)c1)C(=O)O)c1ccc(O)c(O)c1` (stereo not drawn), the EC50 in data set [1] was 0.82 µM; in data set [3], 0.95 µM; in data set [4], > 52.5 µM. In data set [2], this molecule yielded an LD5 of 90 µM. This molecule also gave an IC50 in data set [5] of 0.43 µM.
In data set [2], `O=C(/C=C/c1ccc(O)c(O)c1)OC1C[C@](O)(C(=O)O)C[C@@H](O)[C@H]1OC(=O)/C=C/c1ccc(O)c(O)c1` (stereo partly drawn) gave an LD5 of 145 µM. Besides, the EC50 in data set [3] (setting [7]) was 4 µM. The same molecule returned an IC50 in data set [5] of 0.6 µM.
For the molecule `O=C(/C=C/c1cccc(O)c1)OC(C(=O)O)C(OC(=O)/C=C/c1cccc(O)c1)C(=O)O` (stereo not drawn), the LD5 in data set [2] was 566 µM. In data set [3] (setting [7]), the EC50 was > 283 µM.
`O=C(/C=C/c1ccccc1)OC(C(=O)O)C(OC(=O)/C=C/c1ccccc1)C(=O)O` (stereo not drawn): the LD5 in data set [2] was > 245 µM.
Consider `O=C(/C=C/c1ccc(O)c(O)c1)OC1CCCC(OC(=O)/C=C/c2ccc(O)c(O)c2)C1` (stereo not drawn), for which the LD5 in data set [2] amounted to 9.1 µM. Besides, in data set [3] (setting [7]), the EC50 was > 34.1 µM. Half-maximal inhibition in data set [5] (IC50) was put at 1.8 µM.
For the molecule `O=C(OC(C(=O)O)C(OC(=O)c1cc(O)ccc1O)C(=O)O)c1cc(O)ccc1O` (stereo not drawn), the LD5 in data set [2] is > 238 µM. Further, in data set [3] (setting [7]), the EC50 was > 238 µM.
`O=C(OC(C(=O)O)C(OC(=O)c1ccc(F)c(F)c1)C(=O)O)c1ccc(F)c(F)c1` (stereo not drawn) yielded an LD5 in data set [2] of 28.9 µM. Moreover, the EC50 in data set [3] (setting [7]) is > 59.2 µM.
The corresponding values for `O=C(/C=C/c1ccc(O)c(O)c1)OC(C(=O)OC(c1ccccc1)c1ccccc1)C(OC(=O)/C=C/c1ccc(O)c(O)c1)C(=O)OC(c1ccccc1)c1ccccc1` (stereo not drawn) are 16.1 µM and > 37.2 µM.
The corresponding values for `O=C(O)C(O)C(O)C(=O)O` (stereo not drawn) are > 1000 µM and > 1000 µM.
In turn, `O=C(/C=C/c1ccc(O)c(O)c1)OCCCCOC(=O)/C=C/c1ccc(O)c(O)c1` yielded an LD5 in data set [2] of 121 µM. Moreover, in data set [3] (setting [7]), the EC50 was > 242 µM. Also, the IC50 in data set [5] was > 10 µM.
In turn, `O=C(/C=C/c1ccc(O)c(O)c1)O[C@@H]1C[C@](O)(C(=O)O)C[C@@H](O)[C@H]1O` [CHLOROGENIC ACID] gave an LD5 in data set [2] of 249 µM. Further, in data set [3] (setting [7]), the EC50 is > 497 µM.
The molecule `O=C(/C=C\c1ccc(O)c(O)c1)OC1CCCCC1OC(=O)/C=C\c1ccc(O)c(O)c1` (stereo not drawn) gave an LD5 in data set [2] of 22.7 µM. In data set [3] (setting [7]), the EC50 is > 90.9 µM. Moreover, in data set [5], the concentration for half-maximal inhibition (IC50) came out at 8.36 µM.
For the molecule `O=C(OC(C(=O)O)C(OC(=O)c1cc(O)c(O)c(O)c1)C(=O)O)c1cc(O)c(O)c(O)c1` (stereo not drawn), the EC50 in data set [1] came out at 0.29 µM; in data set [6] it was 31.2 µM; in data set [3] it was 0.66 µM. The LD5 in data set [2] stood at 2.7 µM. This molecule also returned an IC50 in data set [5] of 0.97 µM.
Take `O=C(Cc1ccc(O)c(O)c1)OC(C(=O)O)C(OC(=O)Cc1ccc(O)c(O)c1)C(=O)O` (stereo not drawn): the figures for the EC50 in data set [1], in data set [3] and in data set [4] were 15.6 µM, 35 µM and > 62.5 µM, respectively. In data set [2], this molecule had an LD5 of 70 µM. The molecule further returned an IC50 in data set [5] of 0.88 µM.
Consider `O=C(/C=C\c1ccc(O)c(O)c1)OC1CCCC(OC(=O)/C=C\c2ccc(O)c(O)c2)C1` (stereo not drawn), for which the LD5 in data set [2] came to 36.4 µM. Besides, in data set [3] (setting [7]), the EC50 was > 68.2 µM. Inhibition in data set [5] was half-maximal at 1.63 µM (IC50).
In turn, `O=C(/C=C/c1ccc(O)c(O)c1)O[C@@H]1C[C@](O)(C(=O)O)C[C@@H](OC(=O)/C=C/c2ccc(O)c(O)c2)[C@H]1O` gave an LD5 in data set [2] of 290 µM. Further, in data set [3] (setting [7]), the EC50 came out at 2 µM. The same molecule displayed an IC50 in data set [5] of 1.3 µM.
The like results for `O=C(/C=C/c1ccc(O)c(O)c1)Oc1cc(OC(=O)/C=C/c2ccc(O)c(O)c2)cc(C(=O)O)c1` were, in that order, 100 µM, > 75 µM and 6.9 µM.
`O=C(/C=C/c1ccc(O)c(O)c1)OCCCOC(=O)/C=C/c1ccc(O)c(O)c1` returned an LD5 in data set [2] of 117.5 µM. Further, in data set [3] (setting [7]), the EC50 was > 350 µM. Besides, the IC50 in data set [5] is > 10 µM.
As to `O=C(/C=C/c1ccc(O)c(O)c1)OC1CCCCC1OC(=O)/C=C/c1ccc(O)c(O)c1` (stereo not drawn), the LD5 in data set [2] amounted to 63.6 µM. In data set [3] (setting [7]), the EC50 was > 136 µM. Further, the IC50 in data set [5] is > 10 µM.
As to `O=C(/C=C/c1ccc(O)c(O)c1)O[C@H](C(=O)O)[C@H](OC(=O)/C=C/c1ccc(O)c(O)c1)C(=O)O` [CHICORIC ACID], in data set [2], the LD5 came to 115 µM.
`O=C(/C=C/c1ccc(O)c(O)c1)OCC(OC(=O)/C=C/c1ccc(O)c(O)c1)C(=O)O` (stereo not drawn) came in with an LD5 in data set [2] of 145 µM. In addition, the EC50 in data set [3] (setting [7]) amounted to 2.3 µM. Moreover, in data set [5], the midpoint of inhibition, the IC50, lay at 0.52 µM.
For the molecule `O=C(O)[C@]1(O)C[C@@H](O)[C@@H](O)[C@H](O)C1` [QUINIC ACID], the LD5 in data set [2] stood at 907 µM. For the same molecule, the EC50 in data set [3] (setting [7]) was > 1820 µM.
For the molecule `O=C(/C=C/c1ccc(O)c(O)c1)OC1CCC(OC(=O)/C=C/c2ccc(O)c(O)c2)CC1` (stereo not drawn), the LD5 in data set [2] was determined as 170 µM. The EC50 in data set [3] (setting [7]) was > 341 µM. The same molecule returned an IC50 in data set [5] of 1.03 µM.
The like results for `O=C(/C=C/c1ccc(O)c(O)c1)OCCOC(=O)/C=C/c1ccc(O)c(O)c1` were, in that order, 194 µM, > 388 µM and > 10 µM.
With `O=C(CCc1ccc(O)c(O)c1)OC(C(=O)O)C(OC(=O)CCc1ccc(O)c(O)c1)C(=O)O` (stereo not drawn), the EC50 in data set [1] came to 7.8 µM; in data set [6], 31.2 µM; in data set [3], 8.4 µM. Moreover, the LD5 in data set [2] was > 263 µM. The molecule also gave an IC50 in data set [5] of 2.38 µM.
`O=C(/C=C/c1ccc(O)cc1)OC(C(=O)O)C(OC(=O)/C=C/c1ccc(O)cc1)C(=O)O` (stereo not drawn) yielded an LD5 in data set [2] of 114 µM. Further, in data set [3] (setting [7]), the EC50 was > 227 µM.
For `O=C(/C=C/c1ccc(O)c(O)c1)O[C@@H]1C[C@@](O)(C(=O)O)CC(O)[C@@H]1OC(=O)/C=C/c1ccc(O)c(O)c1` (stereo partly drawn), the LD5 in data set [2] stood at 116 µM. The EC50 in data set [3] (setting [7]) came to 12 µM. In data set [5], this molecule had an IC50 of 1.4 µM.
The like results for `O=C(/C=C\c1ccc(O)c(O)c1)OC1CCC(OC(=O)/C=C\c2ccc(O)c(O)c2)CC1` (stereo not drawn) were, in that order, 20.5 µM, > 45 µM and 1.01 µM.
The corresponding values for `O=C(OC(C(=O)O)C(OC(=O)c1cccc(O)c1O)C(=O)O)c1cccc(O)c1O` (stereo not drawn) are 19 µM, > 38 µM and 1.07 µM.
In data set [2], `O=C(O)/C=C/c1ccc(O)c(O)c1` [CAFFEIC ACID] registered an LD5 of 1389 µM. In addition, in data set [3] (setting [7]), the EC50 is > 1390 µM.
The corresponding values for `COc1ccc(/C=C/C(=O)OC(C(=O)O)C(OC(=O)/C=C/c2ccc(OC)c(OC)c2)C(=O)O)cc1OC` (stereo not drawn) are 89 µM and > 178 µM.
The corresponding values for `O=C(OC(C(=O)O)C(OC(=O)c1cc(O)cc(O)c1)C(=O)O)c1cc(O)cc(O)c1` (stereo not drawn) are > 119 µM and > 119 µM.
Molecule `O=C(/C=C/c1ccc(O)c(O)c1)O[C@@H]1CC(OC(=O)/C=C/c2ccc(O)c(O)c2)(C(=O)O)C[C@@H](O)C1O` (single isomer, unassigned) [CYNARIN] displayed an LD5 in data set [2] of 145 µM. For the same molecule, in data set [3] (setting [7]), the EC50 worked out at 4 µM. In addition, the 50% inhibitory concentration (IC50) in data set [5] was 1.6 µM.
For `O=C(/C=C/c1ccc(O)c(O)c1)OC(C(=O)O)C(OC(=O)/C=C/c1ccc(O)c(O)c1)C(=O)O` (stereo in doubt; 1 (L)), the LD5 in data set [2] stood at 264 µM.

As a reminder, the IC50 is the concentration that gives 50% inhibition.

For the origin of these results see ChEMBL document CHEMBL1132572 (J Med Chem, 1999).
